Test results published in publication PMC5065625, “Structure-mechanism-based engineering of chemical regulators targeting distinct pathological factors in Alzheimer's disease” (Nature Communications, 2016).
Values belong to the compound of their own block, whether it stands above or below them.

Assays:
[1] = system: human neuroblastoma SK-N-BE(2)-M17 (M17) cells; test: Cell viability (MTT assay), compounds with and without metal ions; format: cell-based; conditions: with and without Cu(II) and Zn(II), up to 20 μM
Description: (§1) The M17 cell line was purchased from the American Type Culture Collection (ATCC, Manassas, VA, USA). The cell line was maintained in media containing 50% minimum essential medium and 50% F12 (GIBCO, Grand Island, NY, USA), supplemented with 10% fetal bovine serum (Sigma), 100 U ml^−1 penicillin, and […] streptomycin (GIBCO). The cells were grown and maintained at 37 °C in a humidified atmosphere with 5% CO2. […] Cell viability upon treatment of compounds was determined using the MTT assay (Sigma). M17 cells were seeded in a 96-well plate (15,000 cells in 100 μl per well). The cells were treated with Aβ (20 μM) with or without CuCl2 or ZnCl2 (20 μM), followed by the addition of compounds (20 μM, 1% v/v final DMSO concentration), and incubated for 24 h. After incubation, 25 μl MTT (5 mg ml^−1 in phosphate buffered saline (PBS, pH 7.4, GIBCO) was added to each well and the plate was incubated for 4 h at 37 °C. Formazan produced by the cells was solubilized using an acidic solution of N,N-dimethylformamide (DMF, 50%, v/v aq) and SDS (20%, w/v) overnight at room temperature in the dark. The absorbance was measured at 600 nm using a microplate reader. Cell viability was calculated relative to cells containing an equivalent amount of DMSO.

[2] = system: Aβ40/Aβ42 toxicity in M17 cells; test: Cell viability (MTT assay), compounds with Aβ and metal–Aβ; format: cell-based, human; conditions: compound 20 μM, Aβ40/Aβ42 20 μM, CuCl2 or ZnCl2 20 μM, 24 h
Description: as §1

[3] = system: 5 × FAD mice; test: Tolerability and body weight during 30-day treatment; format: in vivo, mouse
Text: The amyloidogenic characteristics of 5 × FAD mice have been described previously. In brief, 5 × FAD mice express the Swedish/London/Florida mutations of the human amyloid precursor protein (hAPP) and the M146L/L286V mutations of the human presenilin-1 (PSEN1). They develop the early and robust pathology of AD with the cognitive and behavioural impairments. The 5 × FAD mice have been widely used to test the possible efficacy of a compound targeted for AD[25][29]. We maintained the mice on a C57BL/6 × SJL hybrid background. All animal experiments were performed in accordance with the guidelines of the Asan Institute for Life Science for Laboratory Animal Care and Use (Seoul, Korea), where the animals had free access to water and food, and were housed on 12 h light/12 h dark cycle.
(§2) Chemicals used were freshly prepared shortly before administration to the animals. We treated 5 × FAD mice with 1 (1 mg kg^−1 of body weight) or the vehicle (1% v/v DMSO in 20 mM HEPES, pH 7.4, 150 mM NaCl) starting at 3 months of age, which is the same method used in our previous studies. 1 was daily injected into the lower abdomen of the 5 × FAD mice for 30 days.

[4] = system: 5 × FAD AD mouse model; test: Morris water maze test; format: in vivo; conditions: 1 mg kg^−1 daily i.p., 30 days
Description: as §2
Mice were subjected to the Morris water maze test to assess their performance of spatial learning and memory. The water maze was a circular plastic pool (120 cm diameter) and filled with murky water (21.0±1.0 °C). A cylindrical escape platform (15 cm diameter) stood 0.5 cm under the water surface. Three hours after the 30th compound treatment, the mice were allowed the first training to swim and find the hidden escape platform in the water with three repeats per training. Thereafter, they daily tried the task on the next 4 consecutive days. Three hours after the final escape test, the platform was removed, and the mice exercised a probe trial for 60 s. The animal performance was traced with SMART Video Tracking System (Harvard Apparatus, Holliston, MA, USA).

[5] = Solubility; format: physicochemical
[6] = UV–vis variable-pH titration (pKa); format: physicochemical; conditions: aqueous solution (10 mM NaOH, 100 mM NaCl) titrated with HCl, 100 μM
Description: (§3) The pKa value for 2 was determined by UV–vis variable-pH titrations as previously reported. To establish the pKa value, a solution (10 mM NaOH, pH 12, 100 mM NaCl) of 2 (100 μM) was titrated with small amounts of HCl. At least 30 spectra were recorded in the range of pH 2–10. Similarly, a solution containing CuCl2 and 2 (50 μM) in a metal to ligand ratio of 1:2 was titrated with small additions of HCl and at least 30 spectra were recorded over the range pH 2–7. The acidity and stability constants were calculated by using the HypSpec program (Protonic Software, UK)[56]. Speciation diagrams were modelled in the HySS2009 program (Protonic Software)[57].

[7] = UV–vis variable-pH titration of Cu(II)–2 (binding affinity)
Description: as §3

[8] = Cell viability (MTT assay), compounds with and without metal ions; format: cell-based, human; conditions: human, SK-N-BE(2)-M17 (M17) neuroblastoma cells; M17 cells, in the absence of Cu(II), 48 and 72 h
Description: as §1

[9] = 1 mg kg^−1 daily, intraperitoneal, 30 days, 5 × FAD mice

SMILES: Nc1ccc(NCc2ccccn2)cc1 [compound 1, N^1-(pyridin-2-ylmethyl)benzene-1,4-diamine]
- Toxicity in M17 cells [1]: nontoxic
- Toxicity induced by metal–Aβ [2]: diminished
- Body weight versus vehicle-treated mice [3, 9]: no difference in body weight
- Tolerability of repeated treatments [3, 9]: tolerated the repeated treatments
- Body weight, female, day 1 ([3]; 5×FAD mice, 1 mg/kg/day, mean): 20.8 gram
- Body weight, female, day 3 ([3]; 5×FAD mice, 1 mg/kg/day, mean): 20.8 gram
- Body weight, female, day 6 ([3]; 5×FAD mice, 1 mg/kg/day, mean): 20.8 gram
- Body weight, female, day 9 ([3]; 5×FAD mice, 1 mg/kg/day, mean): 21.0 gram
- Body weight, female, day 12 ([3]; 5×FAD mice, 1 mg/kg/day, mean): 21.2 gram
- Body weight, female, day 15 ([3]; 5×FAD mice, 1 mg/kg/day, mean): 20.8 gram
- Body weight, female, day 18 ([3]; 5×FAD mice, 1 mg/kg/day, mean): 21.2 gram
- Body weight, female, day 21 ([3]; 5×FAD mice, 1 mg/kg/day, mean): 21.4 gram
- Body weight, female, day 24 ([3]; 5×FAD mice, 1 mg/kg/day, mean): 21.4 gram
- Body weight, female, day 27 ([3]; 5×FAD mice, 1 mg/kg/day, mean): 21.8 gram
- Body weight, female, day 30 ([3]; 5×FAD mice, 1 mg/kg/day, mean): 21.6 gram
- Body weight, male, day 1 ([3]; 5×FAD mice, 1 mg/kg/day, mean): 28.0 gram
- Body weight, male, day 3 ([3]; 5×FAD mice, 1 mg/kg/day, mean): 27.6 gram
- Body weight, male, day 6 ([3]; 5×FAD mice, 1 mg/kg/day, mean): 27.6 gram
- Body weight, male, day 9 ([3]; 5×FAD mice, 1 mg/kg/day, mean): 27.8 gram
- Body weight, male, day 12 ([3]; 5×FAD mice, 1 mg/kg/day, mean): 27.4 gram
- Body weight, male, day 15 ([3]; 5×FAD mice, 1 mg/kg/day, mean): 27.8 gram
- Body weight, male, day 18 ([3]; 5×FAD mice, 1 mg/kg/day, mean): 28.0 gram
- Body weight, male, day 21 ([3]; 5×FAD mice, 1 mg/kg/day, mean): 27.8 gram
- Body weight, male, day 24 ([3]; 5×FAD mice, 1 mg/kg/day, mean): 27.6 gram
- Body weight, male, day 27 ([3]; 5×FAD mice, 1 mg/kg/day, mean): 28.0 gram
- Body weight, male, day 30 ([3]; 5×FAD mice, 1 mg/kg/day, mean): 27.0 gram
- Finding the hidden escape platform (trial trainings) [4]: faster than the vehicle-treated 5 × FAD mice
- Probe trials, long-term spatial memory [4]: significant improvement of the long-term spatial memory

- Water solubility relative to 1 [5]: much lower degrees of water solubility
- pKa [6]: 5
- logβ (Cu + L = CuL) ([7]; Cu(II):L = 1:2, [2] = 50 μM): 5.6(8)
- Approximate dissociation constant for Cu(II), 1:1 complex ([7]; UV–vis variable-pH titrations): micromolar range
- pCu (=−log[Cu(II)]free) ([7]; pH 6.6): 6.24
SMILES: COc1cc(NCc2ccccn2)cc(OC)c1 [compound 2, 3,5-dimethoxy-N-(pyridin-2-ylmethyl)aniline]
- Toxicity in M17 cells [1]: nontoxic
- Toxicity induced by metal–Aβ [2]: diminished

SMILES: CN(C)c1ccc(NCc2ccc[nH]2)cc1 [compound 4, N^1-((1H-pyrrol-2-yl)methyl)-N^4,N^4-dimethylbenzene-1,4-diamine]
- viability at up to 20 μM [8]: ~60%
- Solubility in the 2-deoxyribose assay buffer ([5]; phosphate buffer pH 7.2): poor solubility under the assay conditions
